# Measured values taken from PMC10916400, “Effect of the aggregated protein dye YAT2150 on Leishmania parasite viability” (Antimicrobial Agents and Chemotherapy, 2024).
# Columns and labels:
# L. major promastigotes = assay: Luciferase assay for free intracellular ATP levels; type: cell-based, Leishmania major; conditions: luciferase-expressing L. major promastigotes, DMNPE-luciferin
# Protocol: The process described in reference ([62]) was followed. Briefly, L. major promastigotes (Friendlin strain) were transfected with the pLEXSY-hyg2.1 expression vector (Jena Bioscience, Jena, Germany) containing a cytoplasmic form of firefly luciferase mutated at its C-terminal tripeptide to prevent its import into the glycosome. Promastigotes were grown in Roswell Park Memorial Institute 1640 medium (RPMI) supplemented with 10% FBS, 2 mM L-glutamine, 1,000 U/mL penicillin/streptomycin (Gibco, Billings, MT, US), and 100 µg/mL hygromycin (InvivoGen, San Diego, CA, US) at 26°C. To assess variation in the intracellular concentration of free ATP, parasites were harvested at the late exponential phase of growth. After two washes with Hanks balanced buffer, parasites were resuspended in the same buffer supplemented with 10 mM D-glucose at 2.2 × 10^7 parasites/mL. After the addition of DMNPE-caged D-luciferin (GoldBio, St. Louis, MO, US) at 50 µM final concentration, the parasite suspension was aliquoted (90 µL/well) into a black 96-microwell plate (Nunc A/S, Roskilde, Denmark), and luminescence readout was monitored in a POLARstar Galaxy microplate reader (BMG LABTECH GmbH) with a luminescence setup. Once the luminescence reached a plateau, 10 µL of a YAT2150 solution at 10× fold its final concentration was added (t0) and the luminescence value at this point was considered as 100%. […]
# [1] = Human microsomal stability assay; type: in vitro ADME; conditions: 37°C
# Protocol: The following components were added in a 96-well microplate in a final volume of 500 µL 50 mM Na/K phosphate buffer, pH 7.4 (stock solutions are indicated in parentheses, dissolved in the same buffer unless otherwise specified): […] NADP (10 mM), 10 µM glucose 6-phosphate (100 mM), […] glucose 6-phosphate dehydrogenase (40 U/mL, dissolved in 5 mM sodium citrate), 3 µM MgCl2·6 H2O (30 mM, dissolved in H2O), 0.8 mg protein/mL of human microsomes (10 mg/mL protein; XenoTech), and 1 µM of test compound (100 µM, dissolved in ACN). Plates were incubated at 37°C and 75 µL samples were taken at 0, 10, 20, 40, and 60 min, to which 75 µL ACN + internal standard (Rolipram) to inactivate the microsomes and 30 µL of 0.5% formic acid in H2O to improve the chromatographic conditions were added, and kept at 4°C. When all the samples were taken, the plate was centrifuged at 46,000 × g for 30 min at 15°C, and UPLC-MS/MS was performed as above, except for the time in 100% B from 1 to 2.5 min, the return to 95% A:5% B from 2.5 to 2.6 min, and the maintenance of this ratio from 2.6 to 3.0 min. Metabolic stability was calculated from the logarithm of the remaining compound at each of the times evaluated.
# [2] = test system: L. infantum promastigote cultures; assay: Protein aggregation assay in L. infantum cultures (ThT fluorescence); type: cell-based, Leishmania infantum; conditions: 0.15 and 0.3 µM YAT2150, 90 min and 4 h, promastigote culture extracts
# Protocol: Ten milliliters of L. infantum promastigote cultures in the logarithmic growth phase at a concentration of 10^7 cells/mL in T-25 flasks (SPL Life Sciences, Pochon, Kyonggi-do, South Korea) was either treated with 0.15 µM or 0.3 µM YAT2150 or left untreated. After 90 min and 4 h of incubation, 1 mL of each culture was washed (3×, 1 mL PBS, 600 × g, 3 min) and the parasite-containing pellets were taken up in 100 µL of 4.5 mg/mL NaCl supplemented with 1× cOmplete protease inhibitor cocktail (Roche, Basel, Switzerland) and incubated overnight at 4°C with gentle stirring. After this time, samples were spun down (2,000 × g, 10 s) and the protein in each supernatant was quantified with the Pierce BCA protein assay kit (Thermo Electron Corporation, Waltham, MA, US). In a 96-well flat bottom black plate (Greiner Bio-One), 2 µg of protein from each supernatant was diluted in a final volume of 100 µL PBS in duplicates. Protein aggregation was measured by the addition of 25 µM ThT to each well, and after a 15-min incubation with gentle stirring, ThT fluorescence emission intensity was measured as detailed above.
structure (smiles),measurement,setting,value
CCN(CC)c1ccc(/C=C/c2cc[n+](CCCCCCCCCC[n+]3ccc(/C=C/c4ccc(N(CC)CC)cc4)c(C)c3)cc2C)cc1 [YAT2150],concentration beyond which a concentration-dependent reduction in luminescence (ATP) was observed,L. major promastigotes,> 2 µM
same,"t1/2, microsomal stability",[1]; human microsomes,1.34 h
same,"remaining at 1 h, 1 µM","[1]; human, microsomes, pH 7.4, human microsomes, after 1 h",55%
same,half-life at 1 µM,"[1]; human, microsomes, pH 7.4, human microsomes, read-out: t1/2, microsomal stability",1.33 h
same,microsomal CLint at 1 µM,"[1]; pH 7.4, human microsomes",10.6 µL/min/mg
same,overall aggregation of the parasite's proteins (ThT analysis),[2],reduced
